Laboratory results from patent US12052991B2, “Substituted pyridinyloxybenzenes and salts thereof and use thereof as herbicidal agents” (Bayer Aktiengesellschaft, priority 2018, dated 2024).

Columns and labels:
Format in all cases: in vivo
[1] = test system: Digitaria sanguinalis (DIGSA); assay: Herbicidal post-emergence action (Table B10); details: dosage 1280 g/ha; visual rating about 3 weeks after treatment; 100% = plants have died, 0% = like control plants
Experimental: (§1) Seeds of mono- and dicotyledonous weed plants were placed in plastic pots in sandy loam soil (doubly sown with in each case one species of mono- or dicotyledonous weed plants per pot), covered with soil and cultivated in a greenhouse under controlled growth conditions. 2 to 3 weeks after sowing, the test plants were treated at the one-leaf stage. The compounds of the invention, formulated in the form of wettable powders (WP) or as emulsion concentrates (EC), were applied onto the green parts of the plants as aqueous suspension or emulsion with addition of 0.5% additive at a water application rate of 600 liters per hectare (converted). After the test plants had been kept in the greenhouse under optimum growth conditions for about 3 weeks, the activity of the preparations was rated visually in comparison to untreated controls. For example, 100% activity=the plants have died, 0% activity=like control plants. Tables B1 to B12 below show the effects of selected compounds of the general formula (I) according to Table 1 on various harmful plants and an application rate corresponding to 1280 or 320 g/ha, which were obtained by the experimental procedure mentioned above.

[2] = test system: harmful plants ABUTH, AMARE, ECHCG, LOLRI, MATIN, POAAN, SETVI, STEME, ALOMY, DIGSA, KCHSC and VERPE; assay: Herbicidal post-emergence action, summary of Tables B1-B12; details: application rate of 1280 or 320 g of active ingredient per hectare; summary in words
Experimental: as §1, with “controls.” for “controls. For example, 100% activity=the plants have died, 0% activity=like control plants. Tables B1 to B12 below show the effects of selected compounds of the general formula (I) according to Table 1 on various harmful plants and an application rate corresponding to 1280 or 320 g/ha, which were obtained by the experimental procedure mentioned above.”
(§2) For example, 100% activity=the plants have died, 0% activity=like control plants.
Tables B1 to B12 below show the effects of selected compounds of the general formula (I) according to Table 1 on various harmful plants and an application rate corresponding to 1280 or 320 g/ha, which were obtained by the experimental procedure mentioned above.
As the results of Tables B1-B12 show, compounds no.

[3] = test system: Echinochloa crus-galli (ECHCG); assay: Herbicidal post-emergence action (Table B1); details: rated visually after about 3 weeks, 100% = plants have died, 0% = like control plants
Experimental: as §1

[4] = test system: harmful plants ABUTH, AMARE, ECHCG, LOLRI, MATIN, POAAN, SETVI, STEME, ALOMY, DIGSA, KCHSC and VERPE; assay: Herbicidal pre-emergence action (test C), summary of Tables C1-C12; details: application rate of 1280 or 320 g of active ingredient per hectare; summary in words
Text: Seeds of mono- and dicotyledonous weed plants were placed in plastic pots in sandy loam soil (doubly sown with one species each of mono- or dicotyledonous weed plants per pot) and covered with soil. The compounds of the invention, formulated in the form of wettable powders (WP) or as emulsion concentrates (EC), were then applied onto the surface of the covering soil as aqueous suspension or emulsion with addition of 0.5% additive at a water application rate of 600 liters per hectare (converted). After the treatment, the pots were placed in a greenhouse and kept under good growth conditions for the test plants. After about 3 weeks, the effect of the preparations was scored visually in comparison with untreated controls as percentages.
as §2
Tables C1 to C12 below show the effects of selected compounds of the general formula (I) according to Table 1 on various harmful plants and an application rate corresponding to 1280 or 320 g/ha, which were obtained by the experimental procedure mentioned above.
As the results of Tables C1-C12 show, compounds no.

[5] = test system: Alopecurus myosuroides (ALOMY); assay: Herbicidal post-emergence action (Table B9); details: rated visually after about 3 weeks, 100% = plants have died, 0% = like control plants
Experimental: as §1

[6] = test system: Alopecurus myosuroides (ALOMY); assay: Herbicidal pre-emergence action, test C (Table C9); details: dosage 1280 g/ha; visual scoring after about 3 weeks; 100% = plants have died, 0% = like control plants
Text: (§3) Seeds of mono- and dicotyledonous weed plants were placed in plastic pots in sandy loam soil (doubly sown with one species each of mono- or dicotyledonous weed plants per pot) and covered with soil. The compounds of the invention, formulated in the form of wettable powders (WP) or as emulsion concentrates (EC), were then applied onto the surface of the covering soil as aqueous suspension or emulsion with addition of 0.5% additive at a water application rate of 600 liters per hectare (converted). After the treatment, the pots were placed in a greenhouse and kept under good growth conditions for the test plants. After about 3 weeks, the effect of the preparations was scored visually in comparison with untreated controls as percentages. For example, 100% activity=the plants have died, 0% activity=like control plants. Tables C1 to C12 below show the effects of selected compounds of the general formula (I) according to Table 1 on various harmful plants and an application rate corresponding to 1280 or 320 g/ha, which were obtained by the experimental procedure mentioned above.

[7] = test system: Digitaria sanguinalis (DIGSA); assay: Herbicidal pre-emergence action, test C (Table C10); details: dosage 1280 g/ha; visual scoring after about 3 weeks; 100% = plants have died, 0% = like control plants
Text: as §3

Veronica persica (VERPE) [8] = assay: Herbicidal pre-emergence action, test C (Table C12); details: visual scoring vs untreated controls
Text: as §3

Poa annua (POAAN) [9] = assay: Herbicidal post-emergence action (Table B3); details: rated visually after about 3 weeks, 100% = plants have died, 0% = like control plants
Experimental: as §1

Stellaria media (STEME) [10] = assay: Herbicidal post-emergence action (Table B8); details: visual rating about 3 weeks after treatment, 100% = plants have died, 0% = like control plants
Experimental: as §1

[11] = test system: Abutilon theophrasti (ABUTH); assay: Herbicidal post-emergence action (Table B5); details: rated visually after about 3 weeks, 100% = plants have died, 0% = like control plants
Experimental: as §1

[12] = test system: Matricaria inodora (MATIN); assay: Herbicidal pre-emergence action, test C (Table C7); details: dosage 1280 g/ha; visual scoring after about 3 weeks; 100% = plants have died, 0% = like control plants
Text: as §3

Poa annua (POAAN) [13] = assay: Herbicidal pre-emergence action, test C (Table C3); details: visual scoring after about 3 weeks, 100% = plants have died, 0% = like control plants
Text: as §3

Stellaria media (STEME) [14] = assay: Herbicidal pre-emergence action, test C (Table C8); details: visual scoring after about 3 weeks, 100% = plants have died, 0% = like control plants
Text: as §3

Setaria viridis (SETVI) = assay: Herbicidal pre-emergence action, test C (Table C4); details: dosage 1280 g/ha; visual scoring after about 3 weeks; 100% = plants have died, 0% = like control plants
Text: as §3

[15] = test system: Abutilon theophrasti (ABUTH); assay: Herbicidal pre-emergence action, test C (Table C5); details: dosage 1280 g/ha; visual scoring after about 3 weeks; 100% = plants have died, 0% = like control plants
Text: as §3

[16] = test system: Amaranthus retroflexus (AMARE); assay: Herbicidal post-emergence action (Table B6); details: dosage 1280 g/ha; visual rating about 3 weeks after treatment; 100% = plants have died, 0% = like control plants
Experimental: as §1

Veronica persica (VERPE) [17] = assay: Herbicidal post-emergence action (Table B12); details: visual rating about 3 weeks after treatment, 100% = plants have died, 0% = like control plants
Experimental: as §1

Bassia scoparia (KCHSC) = assay: Herbicidal post-emergence action (Table B11); details: visual rating about 3 weeks after treatment, 100% = plants have died, 0% = like control plants
Experimental: as §1

[18] = test system: Amaranthus retroflexus (AMARE); assay: Herbicidal pre-emergence action, test C (Table C6); details: visual scoring after about 3 weeks, 100% = plants have died, 0% = like control plants
Text: as §3

For `Cc1ccc(-c2cc(C(F)F)no2)c(Oc2ccc(Cl)cn2)c1` [Example 1-26], the “Post-emergence action against Digitaria sanguinalis (DIGSA)” value [1] was 90%, the “herbicidal activity against the harmful plants of Tables B1-B12 in post-emergence treatment” value [2] was “very good herbicidal activity” and the “Post-emergence action against Echinochloa crus-galli (ECHCG)” value ([3]; 320 g/ha) was 100%. The “Post-emergence action against Echinochloa crus-galli (ECHCG)” value ([3]; 1280 g/ha) was 100%, the “herbicidal activity against the harmful plants of Tables C1-C12 in pre-emergence treatment” value [4] was “very good herbicidal activity” and the “Post-emergence action against Alopecurus myosuroides (ALOMY)” value ([5]; 320 g/ha) was 100%. For the same molecule, the “Post-emergence action against Alopecurus myosuroides (ALOMY)” value ([5]; 1280 g/ha) was 100%, the “Pre-emergence action against Alopecurus myosuroides (ALOMY)” value [6] was 90% and the “Pre-emergence action against Digitaria sanguinalis (DIGSA)” value [7] was 90%. The “Pre-emergence action against Veronica persica (VERPE)” value (“Pre-emergence action … (VERPE)” for short) (Veronica persica (VERPE) [8]; dosage 1280 g/ha) was 90%, the “Post-emergence action against Poa annua (POAAN)” value (“Post-emergence action … (POAAN)” for short) (Poa annua (POAAN) [9]; 320 g/ha) was 100% and the “Post-emergence action … (POAAN)” value (Poa annua (POAAN) [9]; 1280 g/ha) was 100%. For the same molecule, the “Post-emergence action against Stellaria media (STEME)” value (shortened to “Post-emergence action … (STEME)”) (Stellaria media (STEME) [10]; dosage 1280 g/ha) was 100%, the “Post-emergence action against Abutilon theophrasti (ABUTH)” value (“Post-emergence action … (ABUTH)” for short) ([11]; 320 g/ha) was 90% and the “Post-emergence action … (ABUTH)” value ([11]; 1280 g/ha) was 100%. The “Pre-emergence action against Matricaria inodora (MATIN)” value [12] was 100%, the “Pre-emergence action against Poa annua (POAAN)” value (from here on “Pre-emergence action … (POAAN)”) (Poa annua (POAAN) [13]; dosage 320 g/ha) was 90% and the “Pre-emergence action … (POAAN)” value (Poa annua (POAAN) [13]; dosage 1280 g/ha) was 100%. For the same molecule, the “Pre-emergence action against Stellaria media (STEME)” value (shortened to “Pre-emergence action … (STEME)”) (Stellaria media (STEME) [14]; dosage 320 g/ha) was 100%, the “Pre-emergence action … (STEME)” value (Stellaria media (STEME) [14]; dosage 1280 g/ha) was 100% and the “Pre-emergence action against Setaria viridis (SETVI)” value (Setaria viridis (SETVI)) was 90%. The “Pre-emergence action against Abutilon theophrasti (ABUTH)” value [15] was 90%, the “Post-emergence action against Amaranthus retroflexus (AMARE)” value [16] was 100% and the “Post-emergence action against Veronica persica (VERPE)” value (“Post-emergence action … (VERPE)” for short) (Veronica persica (VERPE) [17]; dosage 1280 g/ha) was 100%. The “Post-emergence action against Bassia scoparia (KCHSC)” value (Bassia scoparia (KCHSC); dosage 320 g/ha) was 90% and the “Post-emergence action against Bassia scoparia (KCHSC)” value (Bassia scoparia (KCHSC); dosage 1280 g/ha) was 100%.
With `FC(F)c1cc(-c2c(Oc3ccc(Cl)cn3)cccc2C2CC2)on1` [Example 1-77] the “Post-emergence action against Digitaria sanguinalis (DIGSA)” value [1] was 100%, the “herbicidal activity against the harmful plants of Tables B1-B12 in post-emergence treatment” value [2] was “very good herbicidal activity” and the “herbicidal activity against the harmful plants of Tables C1-C12 in pre-emergence treatment” value [4] was “very good herbicidal activity”. The “Pre-emergence action against Alopecurus myosuroides (ALOMY)” value [6] was 100%, the “Pre-emergence action against Digitaria sanguinalis (DIGSA)” value [7] was 100% and the “Pre-emergence action against Amaranthus retroflexus (AMARE)” value ([18]; dosage 320 g/ha) was 90%. For the same molecule, the “Pre-emergence action against Amaranthus retroflexus (AMARE)” value ([18]; dosage 1280 g/ha) was 100%, the “Pre-emergence action … (VERPE)” value (Veronica persica (VERPE) [8]; dosage 320 g/ha) was 90% and the “Pre-emergence action … (VERPE)” value (Veronica persica (VERPE) [8]; dosage 1280 g/ha) was 100%. The “Post-emergence action … (POAAN)” value (Poa annua (POAAN) [9]; 320 g/ha) was 100%, the “Post-emergence action … (POAAN)” value (Poa annua (POAAN) [9]; 1280 g/ha) was 100% and the “Post-emergence action … (STEME)” value (Stellaria media (STEME) [10]; dosage 320 g/ha) was 100%. For the same molecule, the “Post-emergence action … (STEME)” value (Stellaria media (STEME) [10]; dosage 1280 g/ha) was 100%, the “Post-emergence action … (ABUTH)” value ([11]; 1280 g/ha) was 90% and the “Pre-emergence action … (POAAN)” value (Poa annua (POAAN) [13]; dosage 1280 g/ha) was 100%. For the same molecule, the “Pre-emergence action … (STEME)” value (Stellaria media (STEME) [14]; dosage 320 g/ha) was 100%, the “Pre-emergence action … (STEME)” value (Stellaria media (STEME) [14]; dosage 1280 g/ha) was 100% and the “Pre-emergence action against Setaria viridis (SETVI)” value (Setaria viridis (SETVI)) was 100%. For the same molecule, the “Post-emergence action against Amaranthus retroflexus (AMARE)” value [16] was 100%, the “Post-emergence action … (VERPE)” value (Veronica persica (VERPE) [17]; dosage 320 g/ha) was 100% and the “Post-emergence action … (VERPE)” value (Veronica persica (VERPE) [17]; dosage 1280 g/ha) was 100%.
